Laboratory results published in US3962238A, “Ethers of n-propanol amine” (Centre Europeen de Recherches Mauvernay "CERM", priority 1972, dated 1976).
Entries after “also recorded” stand apart in the source; their conditions may differ. Where a name gives a salt, the structure may show the parent alone.

Legend:
Assay type in all cases: in vivo
[1] = Cardiovascular activity on the chloralose-anaesthetised, artificially respirated dog (coronary sinus output, Pv O2, contraction amplitude, arterial pressure, rate of heart-beat); settings: for AMPLITUDE OF VENTRICULAR CONTRACTION / ARTERIAL PRESSURE / CORONARY OUTPUT / RATE OF HEART-BEAT / SINUSAL Pv O2: maximum percentage variation relative to pre-treatment values
Description: The pharmacological activity of the compounds of the invention in the cardiovascular field was determined on the dog in the manner described below:
An incision is made in the right-hand chest wall of an animal, which has been anaesthetised with chloralose and given artificial respiration, to enable the blood from the venus sinus to be drawn off and the apparatus required to record the following parameters to be inserted in position:
a. Output of the coronary sinus;
b. Pv O2 of the blood from the coronary sinus; and
c. Amplitude of the contractions of the right ventricule.
At the same there were also measured:
d. Arterial pressure in a main carotid artery: and
e. The rate of heart-beat determined cardiotachometrically.
Table II which follows records the determinations made of the various parameters, the results being expressed as a maximum percentage variation relative to the pre-treatment values.

[2] = test system: β-adrenergic receptors; assay: Action on the β-adrenergic receptors: inhibition of cardiovascular effects of isoprenaline in anaesthetised dogs; settings: dog, compound 5 mg/kg intravenous
Description: (§1) A stimulating electrode was placed in position on the right stellar ganglion of dogs anaesthetised as described above and for which there were recorded:
(§2) a. The arterial pressure,
(§3) b. Ventricular inotropism (the amplitude of contraction of the right ventricle), and
(§4) c. The rate of heart-beat.
(§5) The chest of the animals were not open and they were breathing freely.
The β-adrenergic receptors, both cardiac and vascular, were stimulated by electrical stimulation of the right stellar ganglion or by intravenous injection with isoprenaline (5 μg/kg).

[3] = test system: β-adrenergic receptors; assay: Action on the β-adrenergic receptors: inhibition of cardiac effects of stimulation of the right stellar ganglion in anaesthetised dogs; settings: compound 5 mg/kg intravenous, average, dog
Description: It then seemed interesting, using compound No. 1, to seek the existence of an action on the β-adrenergic receptors in the manner outlined below:
as §1, §2, §3, §4, §5
The β-adrenergic receptors, both cardiac and vascular, were stimulated by electrical stimulation of the right stellar ganglion or by intravenous injection with isoprenaline (5 μg/kg). The measurements were taken both before and after administration of compound No. 1 by the intravenous route in a dose of 5 mg/kg bodyweight.
The following Table III gives the average percentage inhibition of the cardiovascular effects of isoprenaline and of the cardiac effects of the stimulation of the right stellar ganglion.

[4] = isoprenaline 5 ug/kg intravenous, average

CC(C)COCC(CN1CCCC1)N(Cc1ccccc1)c1ccccc1 (centres unmarked) [Compound 1, 1-(3-isobutoxy-2-(phenylbenzyl)-amino)-propyl-pyrrolidino-hydrochloride]
AMPLITUDE OF VENTRICULAR CONTRACTION ([1]; 2.5 mg/kg intravenous): -0.7%
ARTERIAL PRESSURE ([1]; 2.5 mg/kg intravenous): -39.8%
CORONARY OUTPUT ([1]; 2.5 mg/kg intravenous): +51.2%
RATE OF HEART-BEAT ([1]; 2.5 mg/kg intravenous): -28.6%
SINUSAL Pv O2 ([1]; 2.5 mg/kg intravenous): +119.2%
AMPLITUDE OF VENTRICULAR CONTRACTION ([1]; 5 mg/kg intravenous): -22.3%
ARTERIAL PRESSURE ([1]; 5 mg/kg intravenous): -40.2%
CORONARY OUTPUT ([1]; 5 mg/kg intravenous): +36.9%
RATE OF HEART-BEAT ([1]; 5 mg/kg intravenous): -31.8%
SINUSAL Pv O2 ([1]; 5 mg/kg intravenous): +120.8%
oxygen content of the venous cardiac blood (in words) ([1]; intravenous): very considerable increase in the oxygen content of the venous cardiac blood
effect on stimulation of the β-adrenergic receptors (in words) ([2]; isoprenaline or right stellar ganglion stimulation, 5 mg/kg): partial inhibiting effect; also recorded: inhibiting effects with respect to the stimulation of the β-adrenergic receptors
PERCENTAGE INHIBITION OF Hypotension [2, 4]: -54%
PERCENTAGE INHIBITION OF Positive inotropic effect [2, 4]: -46.5%
PERCENTAGE INHIBITION OF Rate of Heart-beat [2, 4]: -32.7%
PERCENTAGE INHIBITION OF Positive inotropic effect [3]: -21.3%
PERCENTAGE INHIBITION OF Rate of Heart-beat [3]: -30%
